Reference: article PMC4742142, “Identification of novel, in vivo active Chk1 inhibitors utilizing structure guided drug design” (Oncotarget, 2015)
“Also recorded” adds a separate entry of the source. Read-outs that look alike come from different tables or passages of the source.

Tests used:
[1] = biological target: T1, Chk1 (Homo sapiens, UniProt O14757); assay: Etoposide induced Chk1 autophosphorylation (pS296) in HT29 cells, immunoblotting; format: cell-based
T1 sequence (O14757 1-476): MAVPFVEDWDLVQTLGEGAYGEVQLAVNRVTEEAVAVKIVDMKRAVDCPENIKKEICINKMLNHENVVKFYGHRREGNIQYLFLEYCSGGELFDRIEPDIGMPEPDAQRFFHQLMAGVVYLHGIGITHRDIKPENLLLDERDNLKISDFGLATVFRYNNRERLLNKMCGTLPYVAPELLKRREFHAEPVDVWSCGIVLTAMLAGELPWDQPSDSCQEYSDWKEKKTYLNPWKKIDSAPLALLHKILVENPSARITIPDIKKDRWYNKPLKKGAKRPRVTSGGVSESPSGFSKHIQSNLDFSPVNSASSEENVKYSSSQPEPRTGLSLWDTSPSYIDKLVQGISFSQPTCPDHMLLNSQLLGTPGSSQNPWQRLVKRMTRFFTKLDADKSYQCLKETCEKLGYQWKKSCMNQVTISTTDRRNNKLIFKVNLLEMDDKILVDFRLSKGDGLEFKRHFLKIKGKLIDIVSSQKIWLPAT
Experimental: Figure 3 Effect of V158411 on etoposide, gemcitabine and camptothecin induced DNA damage checkpoint and cell cycle proteins A. HT29 cells were exposed to increasing concentrations of V158411 for 1 hour followed by 25 μM etoposide for a further 5 hours. Auto-phosphorylation of Chk1 and Chk2 was determined by immunoblotting. B. HT29 cells were treated with gemcitabine (25 nM) or camptothecin (50 nM) for 16 hours followed by increasing doses of V158411 for a further 24 hours. C. HT29 cells were treated with 500 nM V158411 for 1 hour, media removed and replaced with drug free. Cells were harvested at the indicated time points post the removal of V158411. D. HT29 cells were treated with 0 or 100 nM camptothecin for 16 hours followed by V158411 for 2 - 24 hours. After the indicated time, media was removed and replaced with drug free media. All cells were harvested 24 hours after the initial addition of V158411. Protein expression was characterized by immunoblotting as described in materials and methods.
Anti-pHistone H3 (S10) was obtained from Millipore; pCdc2 (Y15), pCdc25C (S216), Chk1, pChk1 (S317), pChk2 (S516), Cyclin B1, pH2AX (S139), GAPDH and Actin from Cell Signaling Technologies and pChk1 (S296) from Abcam. Treated and untreated cells were washed once with PBS and lysed in RIPA buffer containing protease and phosphatase inhibitor cocktail (Roche). Protein concentration was determined using BCA kit (Pierce). Equal amounts of lysate were separated by SDS-PAGE and western blot analysis conducted using the antibodies indicated above.

[2] = system: panel of 386 kinases; assay: Wide panel binding assay, whole panel; conditions: at pharmacologically relevant doses
Experimental: Selectivity against the cell cycle kinase CDK1 is considered critical for the pharmacological activity of Chk1 inhibitors as inhibiting it would prevent the G2 checkpoint abrogation and entry into mitosis; critical for the potentiation of cytotoxic DNA damage. Against a panel of 386 kinases in a wide panel binding assay, V158411 inhibited the activity of one kinase (Chk1) in the range 99-100%, three kinases 90-99% and 19 kinases 65-90% at 50 nM (Supplementary Table 1).

[3] = Plasma pharmacokinetics, IV bolus; format: in vivo; conditions: 10 mg/kg IV; for Vd: read-out: Vss
Experimental: (§1) Dosing of animals and collection of samples was conducted by Quotient Bioresearch (Rushden) Ltd, UK. V158411 was administered by intravenous (IV) bolus injection to female Balb/C mice, male Sprague-Dawley rats or male beagle dogs. Plasma samples were prepared by protein precipitation with acetonitrile containing internal standard (IS; dextromethorphan, 0.5 μg/mL); the analysis plate was centrifuged at 3,000 rpm for 10 minutes at 4°C. […] The ratios of analyte against IS peak areas were calculated, and concentrations derived from calibration lines generated by Quanlynx (Waters Ltd.).
(§2) Pharmacokinetic parameters were calculated using the software package WinNonLin (Pharsight Corp.). Data was analyzed using noncompartmental analysis and fitted using plasma concentration versus time curves.

[4] = biological target: CDK1 (Homo sapiens, UniProt P06493); assay: In vitro kinase assay, CDK1; format: biochemical
CDK1, sequence (P06493 whole entry): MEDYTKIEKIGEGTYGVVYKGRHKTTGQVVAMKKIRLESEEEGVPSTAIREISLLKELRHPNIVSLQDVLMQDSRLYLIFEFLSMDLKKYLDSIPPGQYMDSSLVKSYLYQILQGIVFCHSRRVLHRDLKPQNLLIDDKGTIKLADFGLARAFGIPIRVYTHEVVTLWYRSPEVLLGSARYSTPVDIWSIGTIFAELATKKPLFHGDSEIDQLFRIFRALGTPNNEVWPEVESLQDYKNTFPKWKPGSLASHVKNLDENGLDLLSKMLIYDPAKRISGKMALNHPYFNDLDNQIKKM
CDK1, sequence (P14635 whole entry partner): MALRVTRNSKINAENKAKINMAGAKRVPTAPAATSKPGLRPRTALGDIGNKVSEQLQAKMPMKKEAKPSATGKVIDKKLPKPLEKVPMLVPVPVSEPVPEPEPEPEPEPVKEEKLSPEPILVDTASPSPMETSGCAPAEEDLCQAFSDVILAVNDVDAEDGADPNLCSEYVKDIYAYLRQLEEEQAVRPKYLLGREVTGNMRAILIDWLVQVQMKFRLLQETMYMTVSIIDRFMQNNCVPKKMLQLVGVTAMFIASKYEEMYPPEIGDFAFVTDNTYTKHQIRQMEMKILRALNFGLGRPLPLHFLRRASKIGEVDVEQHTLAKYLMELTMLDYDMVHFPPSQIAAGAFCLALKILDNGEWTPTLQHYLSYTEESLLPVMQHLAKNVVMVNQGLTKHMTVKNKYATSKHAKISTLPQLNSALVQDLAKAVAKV
Experimental: (§3) Kinase assays were performed as previously described.

[5] = Tolerability (MTD) in female nu/nu mice; format: in vivo
From the text: Animals were weighed daily for the first five days then twice weekly thereafter for the duration of the study. The mice were observed frequently for overt signs of any adverse, treatment-related side effects, and clinical signs of toxicity recorded. Toxicity greater than a group mean body-weight loss of more than 20% or 1 in 10 treatment-related deaths was considered to be the maximum tolerated dose.

[6] = Plasma and tumor pharmacokinetics in HT29 tumor bearing mice; format: in vivo; conditions: mouse, HT29 tumor bearing mice, 30 mg/kg IV
Experimental: as §1, §2

[7] = system: HT29 cells; assay: Checkpoint abrogation assay (gemcitabine, nocodazole, pHH3 (S10)); format: cell-based, human
Experimental: The ability of V158411 to abrogate gemcitabine induced S-phase arrest was further characterized using a checkpoint abrogation assay. Cells were pre-treated with gemcitabine for 16 hours followed by increasing concentrations of V158411 in the presence of nocodazole, an inhibitor of microtubule polymerization, for a further 24 hours. Mitotic cells were then scored for pHH3 (S10) expression. p53 defective HT29 cells exposed to gemcitabine, which induces arrest in S-phase, were negative for pHH3 (S10) staining. V158411 treatment abrogated the gemcitabine induced S-phase arrest allowing cells to progress through into mitosis where they were trapped by nocodazole. These cells stained positive for pHH3 and are indicative of checkpoint abrogation.

[8] = biological target: Chk2 (Homo sapiens, UniProt O96017); assay: In vitro kinase assay, Chk2; format: biochemical; conditions: full length Chk2
Chk2, sequence (O96017 whole entry): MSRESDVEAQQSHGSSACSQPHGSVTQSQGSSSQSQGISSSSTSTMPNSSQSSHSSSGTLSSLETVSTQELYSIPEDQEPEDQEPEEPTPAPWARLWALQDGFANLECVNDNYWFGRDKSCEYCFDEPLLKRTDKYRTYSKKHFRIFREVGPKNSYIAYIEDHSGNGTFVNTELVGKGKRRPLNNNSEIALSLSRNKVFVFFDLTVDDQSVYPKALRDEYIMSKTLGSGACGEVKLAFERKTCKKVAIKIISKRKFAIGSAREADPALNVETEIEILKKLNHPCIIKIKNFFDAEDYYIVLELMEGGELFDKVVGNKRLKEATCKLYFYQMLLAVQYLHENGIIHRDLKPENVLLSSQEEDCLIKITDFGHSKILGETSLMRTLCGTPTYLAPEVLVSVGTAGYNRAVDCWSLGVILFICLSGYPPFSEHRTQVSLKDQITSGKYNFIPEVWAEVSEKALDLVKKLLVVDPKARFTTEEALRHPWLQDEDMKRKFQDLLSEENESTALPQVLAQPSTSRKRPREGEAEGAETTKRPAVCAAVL
Experimental: as §3

[9] = biological target: T1, Chk1; assay: In vitro kinase assay, Chk1; format: biochemical
Experimental: as §3

[10] = Pharmacokinetics of V158411 and irinotecan, single and combination administration; format: in vivo; conditions: mouse; for half-life / CL/F: female, Balb/C, plasma; for CL/F: read-out: CL or CL/F
Experimental: as §1, §2

[11] = other: V158411 intravenous, irinotecan intraperitoneal
[12] = other: irinotecan intraperitoneal, V158411 intravenous

Compound: CN(C)CC(C)(C)COc1ccc2[nH]c(-c3cc(NC(=O)c4cnn(Cc5ccccc5)c4)c[nH]c3=O)cc2c1 [V158411]
- IC50 for Chk1 autophosphorylation and EC50 for H2AX phosphorylation lower than single agent GI50 [1]: around 10 fold
- IC50 ([1]; 1 hour compound then 25 μM etoposide 5 hours): 48 nM
- cellular selectivity for Chk1 versus Chk2 ([1]; etoposide): 19 fold
- selectivity for Chk1 over the majority of the kinases in the panel [2]: > 100 fold
- AUC(0-t) ([3]; female, Balb/C, mouse): 7100 ng·h/mL
- clearance ([3]; female, Balb/C, mouse): 20 mL/min/kg
- half-life ([3]; female, Balb/C, mouse): 2.9 h
- Vd ([3]; female, Balb/C, mouse): 3.3 L/kg
- AUC(0-t) ([3]; male, Sprague-Dawley, rat): 6910 ng·h/mL
- clearance ([3]; male, Sprague-Dawley, rat): 23.2 mL/min/kg
- half-life ([3]; male, Sprague-Dawley, rat): 3.3 h
- Vd ([3]; male, Sprague-Dawley, rat): 2.4 L/kg
- AUC(0-t) ([3]; male, beagle, dog): 16000 ng·h/mL
- clearance ([3]; male, beagle, dog): 10.6 mL/min/kg
- half-life ([3]; male, beagle, dog): 3.2 h
- Vd ([3]; male, beagle, dog): 1.2 L/kg
- IC50 [4]: > 50000 nM
- selectivity for CDK1 ([4]; Chk1 versus CDK1): more than 10 000 fold
- toxicity / maximum tolerated dose ([5]; IV bolus once or twice weekly, doses up to 100 mg/kg): minimal toxicity at doses up to 100 mg/kg; also recorded: the maximum tolerated dose of V158411 has yet to be found
- effect on irinotecan toxicity ([5]; MTD irinotecan (100 mg/kg IP) plus V158411 up to 100 mg/kg IV 2 hours later, q7d 3 weeks): did not result in increased irinotecan toxicity; also recorded: did not affect the toxicity of irinotecan
- acute, dose-related effects ([5]; single agent IV, self-limiting, minimized by slow infusion): flushing, tachycardia, exophthalmos
- effect on body weight ([5]; single agent, 60 to 100 mg/kg IV q7d for 21 days, female nude mice): no effect on body weight loss
- clearance ([6]; plasma): 24 mL/min/kg
- half-life ([6]; plasma, read-out: half-life (plasma) (converted)): 4.1 h
- Vd ([6]; plasma, read-out: volume of distribution): 2.5 L/kg
- half-life ([6]; read-out: elimination half-life in the tumor (converted)): 22 h
- Kp ([6]; tumor versus plasma, read-out: tissue/plasma AUC0-24h ratio): 4.7
- concentration of maximal abrogation of gemcitabine induced S-phase arrest [7]: around 300 nM
- EC50 ([7]; Homo sapiens, HT-29, gemcitabine 16 hours then compound plus nocodazole 24 hours, read-out: Gem pHH3 (S10) MI EC50 (abrogation of gemcitabine induced S-phase arrest)): 79 nM
- IC50 [8]: 4.5 nM
- IC50 [9]: 4.4 nM
- half-life [10, 11]: 3.4 h
- CL/F [10, 11]: 17.7 mL/min/kg
- half-life [10, 12]: 3.3 h
- CL/F [10, 12]: 8.2 mL/min/kg
- AUClast fold change ([10]; combination (C) versus single administration (I)): 2.2 fold
